What all share (assay type): cell-based
Assay [1] concerns the target von Hippel-Lindau disease tumor suppressor/SWI/SNF-related matrix-associated actin-dependent regulator of chromatin subfamily A member 2 (Homo sapiens) (UniProt P51531+P40337). Briefly: Protac activity at E3 ubiquitin-protein ligase/SMARCA2 in human VCaP cells assessed as SMARCA2 degradation at 100 nM incubated for 16 hrs by Western blot analysis relative to control. For orientation: A western blot detects proteins with antibodies after separation by electrophoresis.

Assay [2] addresses von Hippel-Lindau disease tumor suppressor/SWI/SNF-related matrix-associated actin-dependent regulator of chromatin subfamily A member 4 (Homo sapiens, UniProt P40337+P51532). Briefly: Protac activity at E3 ubiquitin-protein ligase/SMARCA4 in human VCaP cells assessed as SMARCA4 degradation incubated for 16 hrs by Western blot analysis relative to control.
In assay [3] the target is von Hippel-Lindau disease tumor suppressor/SWI/SNF-related matrix-associated actin-dependent regulator of chromatin subfamily A member 2 (Homo sapiens, UniProt P40337+P51531). The assay can be described thus: Protac activity at E3 ubiquitin-protein ligase/SMARCA2 in human VCaP cells assessed as SMARCA2 degradation incubated for 16 hrs by Western blot analysis relative to control.

Assay [4] addresses von Hippel-Lindau disease tumor suppressor/SWI/SNF-related matrix-associated actin-dependent regulator of chromatin subfamily A member 4 (Homo sapiens) (UniProt P51532+P40337). The assay can be described thus: Protac activity at E3 ubiquitin-protein ligase/SMARCA4 in human VCaP cells assessed as SMARCA4 degradation at 100 nM incubated for 16 hrs by Western blot analysis relative to control.

Where only a bound is given, the exact number is not on record here.

Sequence of von Hippel-Lindau disease tumor suppressor/SWI/SNF-related matrix-associated actin-dependent regulator of chromatin subfamily A member 4 (P51532 whole entry): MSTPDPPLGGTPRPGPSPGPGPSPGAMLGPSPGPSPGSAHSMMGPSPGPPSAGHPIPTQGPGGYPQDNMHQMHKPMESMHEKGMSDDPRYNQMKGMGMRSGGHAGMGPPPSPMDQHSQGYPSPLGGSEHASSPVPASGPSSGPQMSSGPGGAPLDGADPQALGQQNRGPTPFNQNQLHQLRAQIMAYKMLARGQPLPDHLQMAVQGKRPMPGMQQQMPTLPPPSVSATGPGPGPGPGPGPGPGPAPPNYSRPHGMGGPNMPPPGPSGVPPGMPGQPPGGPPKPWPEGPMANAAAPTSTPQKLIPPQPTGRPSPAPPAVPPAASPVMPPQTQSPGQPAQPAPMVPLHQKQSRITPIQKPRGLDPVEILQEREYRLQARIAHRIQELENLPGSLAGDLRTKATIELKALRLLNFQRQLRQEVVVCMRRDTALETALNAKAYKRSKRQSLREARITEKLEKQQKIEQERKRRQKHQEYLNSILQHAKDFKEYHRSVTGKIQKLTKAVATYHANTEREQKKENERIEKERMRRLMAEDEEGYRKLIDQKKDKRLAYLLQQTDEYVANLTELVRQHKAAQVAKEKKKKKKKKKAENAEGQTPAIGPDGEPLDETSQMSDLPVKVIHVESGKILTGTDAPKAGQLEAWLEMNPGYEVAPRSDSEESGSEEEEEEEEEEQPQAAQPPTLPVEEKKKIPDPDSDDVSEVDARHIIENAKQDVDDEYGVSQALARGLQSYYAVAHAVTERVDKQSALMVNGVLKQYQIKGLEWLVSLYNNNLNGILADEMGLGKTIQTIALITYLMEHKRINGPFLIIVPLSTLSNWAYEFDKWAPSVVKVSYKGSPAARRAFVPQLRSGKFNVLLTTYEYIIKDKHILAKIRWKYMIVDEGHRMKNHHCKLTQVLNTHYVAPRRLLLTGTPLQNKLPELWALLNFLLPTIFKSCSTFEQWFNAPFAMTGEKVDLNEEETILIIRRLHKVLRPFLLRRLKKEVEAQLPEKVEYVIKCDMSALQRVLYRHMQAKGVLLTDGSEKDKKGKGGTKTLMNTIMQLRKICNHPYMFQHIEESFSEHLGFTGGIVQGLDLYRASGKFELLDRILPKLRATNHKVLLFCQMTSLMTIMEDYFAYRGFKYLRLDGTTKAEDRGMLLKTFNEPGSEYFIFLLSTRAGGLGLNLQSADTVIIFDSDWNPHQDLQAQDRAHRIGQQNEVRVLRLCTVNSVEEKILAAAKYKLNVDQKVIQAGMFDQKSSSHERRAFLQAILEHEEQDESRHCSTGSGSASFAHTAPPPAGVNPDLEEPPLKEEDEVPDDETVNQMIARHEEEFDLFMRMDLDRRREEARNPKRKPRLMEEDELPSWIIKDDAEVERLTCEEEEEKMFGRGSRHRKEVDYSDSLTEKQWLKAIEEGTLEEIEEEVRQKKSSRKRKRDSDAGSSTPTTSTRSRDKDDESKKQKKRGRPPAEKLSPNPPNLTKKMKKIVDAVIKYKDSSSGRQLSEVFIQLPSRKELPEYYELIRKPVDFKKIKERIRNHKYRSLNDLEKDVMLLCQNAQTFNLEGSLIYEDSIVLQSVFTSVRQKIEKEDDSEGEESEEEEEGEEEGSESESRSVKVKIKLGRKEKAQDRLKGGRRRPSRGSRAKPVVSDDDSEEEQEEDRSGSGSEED
Sequence of von Hippel-Lindau disease tumor suppressor/SWI/SNF-related matrix-associated actin-dependent regulator of chromatin subfamily A member 4 (P40337 whole entry): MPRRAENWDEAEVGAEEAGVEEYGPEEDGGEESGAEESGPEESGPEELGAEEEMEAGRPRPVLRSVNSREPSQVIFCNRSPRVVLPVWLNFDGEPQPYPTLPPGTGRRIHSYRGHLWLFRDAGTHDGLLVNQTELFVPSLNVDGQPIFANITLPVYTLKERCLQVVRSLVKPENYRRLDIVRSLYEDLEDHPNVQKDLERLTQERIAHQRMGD
Sequence of von Hippel-Lindau disease tumor suppressor/SWI/SNF-related matrix-associated actin-dependent regulator of chromatin subfamily A member 2 (P51531 whole entry): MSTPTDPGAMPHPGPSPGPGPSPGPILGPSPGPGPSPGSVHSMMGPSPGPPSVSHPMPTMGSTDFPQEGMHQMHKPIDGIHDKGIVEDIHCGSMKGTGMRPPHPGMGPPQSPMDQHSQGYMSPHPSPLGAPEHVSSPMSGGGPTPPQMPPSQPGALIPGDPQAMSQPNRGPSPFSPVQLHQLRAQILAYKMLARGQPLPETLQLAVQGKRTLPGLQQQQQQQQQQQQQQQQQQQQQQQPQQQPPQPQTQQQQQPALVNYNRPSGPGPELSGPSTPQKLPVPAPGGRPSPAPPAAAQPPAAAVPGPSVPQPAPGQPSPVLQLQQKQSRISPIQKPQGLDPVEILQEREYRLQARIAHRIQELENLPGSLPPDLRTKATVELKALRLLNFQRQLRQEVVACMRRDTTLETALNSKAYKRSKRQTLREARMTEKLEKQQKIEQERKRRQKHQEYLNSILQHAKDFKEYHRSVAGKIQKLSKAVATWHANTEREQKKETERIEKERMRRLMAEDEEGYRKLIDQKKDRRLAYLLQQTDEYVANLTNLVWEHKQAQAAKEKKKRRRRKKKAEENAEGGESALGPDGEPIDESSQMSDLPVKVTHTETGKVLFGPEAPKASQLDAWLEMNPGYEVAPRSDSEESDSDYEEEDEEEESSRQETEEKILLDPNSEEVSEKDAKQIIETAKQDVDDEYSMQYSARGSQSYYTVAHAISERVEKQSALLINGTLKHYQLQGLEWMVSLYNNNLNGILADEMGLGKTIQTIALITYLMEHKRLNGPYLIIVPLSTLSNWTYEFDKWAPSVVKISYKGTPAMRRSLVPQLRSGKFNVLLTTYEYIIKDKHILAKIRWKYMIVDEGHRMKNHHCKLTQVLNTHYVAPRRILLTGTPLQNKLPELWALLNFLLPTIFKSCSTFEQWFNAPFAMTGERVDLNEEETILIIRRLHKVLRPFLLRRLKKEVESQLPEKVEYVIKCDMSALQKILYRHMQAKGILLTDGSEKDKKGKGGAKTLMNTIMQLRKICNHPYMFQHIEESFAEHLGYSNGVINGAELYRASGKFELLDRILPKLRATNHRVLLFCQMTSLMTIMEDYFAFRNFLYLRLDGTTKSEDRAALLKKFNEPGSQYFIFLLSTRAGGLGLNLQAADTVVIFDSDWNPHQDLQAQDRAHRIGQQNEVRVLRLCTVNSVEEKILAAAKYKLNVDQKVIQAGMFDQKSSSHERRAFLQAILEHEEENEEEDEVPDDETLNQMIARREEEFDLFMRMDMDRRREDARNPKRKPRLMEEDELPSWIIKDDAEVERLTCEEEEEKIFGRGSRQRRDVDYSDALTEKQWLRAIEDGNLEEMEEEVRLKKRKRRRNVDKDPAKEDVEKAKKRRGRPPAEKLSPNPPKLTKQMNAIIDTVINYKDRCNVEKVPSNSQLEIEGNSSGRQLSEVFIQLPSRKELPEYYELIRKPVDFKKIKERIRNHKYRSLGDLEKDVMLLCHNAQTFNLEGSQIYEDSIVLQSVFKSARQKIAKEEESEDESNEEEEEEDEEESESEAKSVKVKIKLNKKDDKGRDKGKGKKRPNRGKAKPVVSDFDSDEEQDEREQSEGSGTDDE
Sequence of von Hippel-Lindau disease tumor suppressor/SWI/SNF-related matrix-associated actin-dependent regulator of chromatin subfamily A member 2 (P40337 whole entry): as the sequence (P40337 whole entry) above
Sequence of von Hippel-Lindau disease tumor suppressor/SWI/SNF-related matrix-associated actin-dependent regulator of chromatin subfamily A member 4 (Homo sapiens) (P40337 whole entry, looked up): as the sequence (P40337 whole entry) above
Sequence of von Hippel-Lindau disease tumor suppressor/SWI/SNF-related matrix-associated actin-dependent regulator of chromatin subfamily A member 4 (Homo sapiens) (P51532 whole entry, looked up): as the sequence (P51532 whole entry) above
Sequence of von Hippel-Lindau disease tumor suppressor/SWI/SNF-related matrix-associated actin-dependent regulator of chromatin subfamily A member 2 (Homo sapiens) (P40337 whole entry, looked up): as the sequence (P40337 whole entry) above
Sequence of von Hippel-Lindau disease tumor suppressor/SWI/SNF-related matrix-associated actin-dependent regulator of chromatin subfamily A member 2 (Homo sapiens) (P51531 whole entry, looked up): as the sequence (P51531 whole entry) above

For orientation: EC50 means the concentration giving half of the maximal effect. As for `Cc1ncsc1-c1ccc([C@H](C)NC(=O)[C@@H]2C[C@@H](O)CN2C(=O)[C@@H](NC(=O)CN2CCN(c3ccc(-c4cnnc(-c5ccccc5O)c4)cn3)CC2)C(C)(C)C)cc1`, the Activity turned out to be 94% in assay [1] and 0% in assay [4]. Besides, the EC50 in assay [2] and in assay [3] was less than 250 nM in each case.
As for `Cc1ncsc1-c1ccc([C@H](C)NC(=O)[C@@H]2C[C@@H](O)CN2C(=O)[C@@H](NC(=O)CN2CCN(c3ccc(-c4cnnc(-c5ccccc5O)c4)cc3)CC2)C(C)(C)C)cc1`, the Activity was determined as 94% in assay [1] and 0% in assay [4]. Also, the EC50 in assay [2] and in assay [3] was less than 250 nM each time.
With `Cc1ncsc1-c1ccc([C@H](C)NC(=O)[C@@H]2C[C@@H](O)CN2C(=O)[C@@H](NC(=O)CN2CCC(c3ccc(-c4cnnc(-c5ccccc5O)c4)cc3)CC2)C(C)(C)C)cc1`, the Activity in assay [1] amounted to 91%; in assay [4] it was 0%. Besides, the concentration for a half-maximal effect (EC50) in assay [2] and in assay [3] was less than 250 nM throughout.
With `Cc1ncsc1-c1ccc([C@H](C)NC(=O)[C@@H]2C[C@@H](O)CN2C(=O)[C@@H](NC(=O)CC2CCN(c3ccc(-c4cnnc(-c5ccccc5O)c4)cc3)CC2)C(C)(C)C)cc1`, the Activity in assay [1] came to 97%; in assay [4], 40%. Also, the EC50 in assay [2] and in assay [3] was less than 250 nM in each case.
Turning to `Cc1ncsc1-c1ccc(CNC(=O)[C@@H]2C[C@@H](O)CN2C(=O)[C@@H](NC(=O)CN2CCC(c3ccc(-c4cnnc(-c5ccccc5O)c4)cc3)CC2)C(C)(C)C)cc1`, the Activity in assay [1] stood at 75%; in assay [4] it was 0%.
Take `Cc1ncsc1-c1ccc([C@H](C)NC(=O)[C@@H]2C[C@@H](O)CN2C(=O)[C@@H](NC(=O)C2CCN(c3ccc(-c4cnnc(-c5ccccc5O)c4)cc3)CC2)C(C)(C)C)cc1`: the Activity is 76% in assay [1] and 0% in assay [4].

(Values after ChEMBL document CHEMBL5137101, “Application of Selective SMARCA2/4 PROTAC for Mutant Cancer Therapy” (ACS Med Chem Lett, 2022).)
